{
  "source": "patent US6756037B2",
  "about": "“Polymer conjugates of biologically active agents and extension moieties for facilitating conjugation of biologically active agents to polymeric terminal groups” (Enzon, Inc., priority 2000, dated 2004)",
  "system": "P388/0 cell lines",
  "assay": "Cytotoxicity assay, growth inhibition of P388/0 cells (Alamar Blue)",
  "type": "cell-based",
  "conditions": "3 days incubation at 37° C., drug concentration inhibiting growth of cells by 50%",
  "experimental": "Cell Lines and Cytotoxicity Assays. Studies using P388/0 cell lines for IC50 (drug concentration inhibiting growth of cells by 50%) were maintained and conducted using standard procedures. Briefly, for IC50 determination, cells were seeded into the microwell plates at a density of 2×10^3 cells per 50 μL per well. Plates were incubated at 37° C. in a humidified incubator with 5% CO2 for 3 days. Cell growth was measured by the addition of 10 μL/well of Alamar Blue (Alamar Biosciences, Inc., Sacramento, Calif.) and the plates were incubated a further 4 hours at 37° C. The IC50 values for each compound were determined from absorbance versus dilution factor plots. All cell cultures for animal implantation were maintained at 37° C. in a humidified atmosphere of 5% CO2/[…] and subcultured once a week. All cell lines were periodically tested for Mycoplasma and were Mycoplasma free.",
  "data": [
    {"smiles": "Nc1ccn([C@@H]2O[C@H](CO)[C@@H](O)[C@@H]2O)c(=O)n1", "note": "[Ara-C, ara-C]", "values": [
      {"measurement": "IC50", "value": 10, "unit": "nM"}
    ]}
  ]
}
